Series [1] deals with T1, 72 kDa type IV collagenase (Homo sapiens, UniProt P08253). Put plainly: Inhibition of recombinant human MMP2 using MOCAc-Lys-Pro-Leu-Gly-Leu-A2pr(Dnp)-Ala-Arg-N2 as substrate preincubated for 10 to 15 mins followed by substrate addition and measured after 60 to 120 mins by fluorescence based assay.
Series [2] deals with Macrophage metalloelastase (Homo sapiens, UniProt P39900). Put plainly: Inhibition of human recombinant MMP12 using MOCAc-Lys-Pro-Leu-Gly-Leu-A2pr(Dnp)-Ala-Arg-N2 as substrate preincubated for 10 to 15 mins followed by substrate addition and measured after 60 to 120 mins by fluorescence based assay.
The next series has as its target Collagenase 3 (Homo sapiens, UniProt P45452). Put plainly: Inhibition of human recombinant MMP13 using MOCAc-Lys-Pro-Leu-Gly-Leu-A2pr(Dnp)-Ala-Arg-N2 as substrate preincubated for 10 to 15 mins followed by substrate addition and measured after 60 to 120 mins by fluorescence based assay.
The next series is filed under the species Homo sapiens. Put plainly: Selectivity ratio of IC50 for recombinant human MMP12 to IC50 for recombinant human MMP2.
Series [3] deals with MMP-2/MMP-13 (Homo sapiens) (UniProt P08253+P45452). Put plainly: Selectivity ratio of IC50 for recombinant human MMP13 to IC50 for recombinant human MMP2. In kind it is protein assay.
A short description of series [4]: Chemical stability of the compound in phosphate buffer at pH 4 assessed as residual rate incubated for 2 weeks by HPLC analysis. The class given is physicochemical. The note with it: read-out: Stability.
The nature of series [5]: Chemical stability of the compound in phosphate buffer at pH 7.4 assessed as residual rate incubated for 2 weeks by HPLC analysis. The note with it: read-out: Stability. The class given is physicochemical.
Series [6] in a line: Chemical stability of the compound in phosphate buffer at pH 9 assessed as residual rate incubated for 2 weeks by HPLC analysis. The class given is physicochemical. The note with it: read-out: Stability.
For series [7], the target named is T1, 72 kDa type IV collagenase. The series can be described thus: Inhibition of MMP2 (unknown origin).

Square brackets hold non-standard residues; d marks the D form. Peptide text beside a SMILES is read from it. * marks the point of attachment. Benzoyl(4-OPh(4-CONH2)) = NC(=O)c1ccc(Oc2ccc(C(=O)*)cc2)cc1; NMeI = CC[C@H](C)[C@H](NC)C(=O)O; NMeE = CN[C@@H](CCC(=O)O)C(=O)O; β3hP = O=C(O)C[C@@H]1CCCN1; Dab = NCC[C@H](N)C(=O)O; Ava = NCCCCC(=O)O Some results are limits rather than exact numbers.

In general, IC50 refers to the concentration that inhibits the measured activity by half. As a reminder, the Ki is a measure of affinity in units of concentration, obtained from inhibition or displacement.

Chain of Macrophage metalloelastase (P39900 whole entry): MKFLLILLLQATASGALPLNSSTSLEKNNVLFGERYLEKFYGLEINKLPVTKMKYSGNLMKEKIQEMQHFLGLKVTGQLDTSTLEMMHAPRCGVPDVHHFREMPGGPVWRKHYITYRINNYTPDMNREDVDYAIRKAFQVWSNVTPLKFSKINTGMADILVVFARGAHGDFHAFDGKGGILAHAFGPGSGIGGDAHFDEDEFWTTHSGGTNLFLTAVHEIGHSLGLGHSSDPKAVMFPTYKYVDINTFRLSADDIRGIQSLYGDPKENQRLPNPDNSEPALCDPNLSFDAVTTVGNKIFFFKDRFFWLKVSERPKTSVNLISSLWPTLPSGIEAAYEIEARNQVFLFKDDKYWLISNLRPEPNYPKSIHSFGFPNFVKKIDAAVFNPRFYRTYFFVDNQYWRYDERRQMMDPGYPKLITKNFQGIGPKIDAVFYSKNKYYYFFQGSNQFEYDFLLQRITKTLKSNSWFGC
T1 sequence (P08253 whole entry): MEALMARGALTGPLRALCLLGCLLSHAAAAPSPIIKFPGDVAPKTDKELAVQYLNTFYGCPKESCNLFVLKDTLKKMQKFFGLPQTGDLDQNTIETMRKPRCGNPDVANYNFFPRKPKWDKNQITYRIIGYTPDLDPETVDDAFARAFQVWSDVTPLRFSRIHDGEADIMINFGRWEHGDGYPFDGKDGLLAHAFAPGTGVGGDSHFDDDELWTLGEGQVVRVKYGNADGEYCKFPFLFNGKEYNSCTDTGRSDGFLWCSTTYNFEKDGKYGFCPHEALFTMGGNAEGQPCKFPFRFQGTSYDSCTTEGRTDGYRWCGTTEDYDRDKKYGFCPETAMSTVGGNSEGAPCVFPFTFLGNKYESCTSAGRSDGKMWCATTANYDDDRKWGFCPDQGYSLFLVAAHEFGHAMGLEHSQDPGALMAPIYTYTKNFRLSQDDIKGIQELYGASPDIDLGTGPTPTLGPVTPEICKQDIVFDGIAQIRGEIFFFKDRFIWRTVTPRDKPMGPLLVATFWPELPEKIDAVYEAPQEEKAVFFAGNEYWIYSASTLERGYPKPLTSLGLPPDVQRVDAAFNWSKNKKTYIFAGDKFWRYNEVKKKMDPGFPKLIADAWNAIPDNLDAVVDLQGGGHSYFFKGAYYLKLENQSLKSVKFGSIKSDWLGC
Chain of MMP-2/MMP-13 (Homo sapiens) (P08253 whole entry, looked up, other chains not shown): as the sequence (P08253 whole entry) above

As to `CC[C@H](C)[C@@H](C(=O)N1CCC[C@H]1CC(N)=O)N(C)C(=O)[C@H](CC(C)C)NC(=O)[C@H](CCN)NC(=O)CC[C@@H](NS(=O)(=O)c1ccc(Oc2ccccc2)cc1)C(=O)O`, the IC50 was more than 10 nM in series [1] and “Not Active” in series [2].

As for `CC[C@H](C)[C@@H](C(=O)NCCCC(N)=O)N(C)C(=O)[C@H](CC(C)C)NC(=O)[C@H](CCN)NC(=O)CC[C@@H](NS(=O)(=O)c1ccc(NC(=O)c2ccc(Cl)cc2)cc1)C(=O)O`, the IC50 in [1] is 0.16 nM; in series [2] (read-out: IC50), 230 nM; at Collagenase 3, 280 nM. Further, the values for the Ratio IC50 (in the series listed under Homo sapiens; in series [3]) were 1400 and 1800, respectively.

As to `CC[C@H](C)[C@@H](C(=O)N1CCC[C@H]1CC(N)=O)N(C)C(=O)[C@H](CC(C)C)NC(=O)[C@H](CCN)NC(=O)CC[C@@H](NS(=O)(=O)c1ccc(NC(=O)c2ccc(C(N)=O)cc2)cc1)C(=O)O`, the 50% inhibitory concentration (IC50) in series [1] worked out at 0.42 nM; in [2] (read-out: IC50), 400 nM; on Collagenase 3 it was 280 nM. Also, the Ratio IC50 turned out to be 950 in the series listed under Homo sapiens and 670 in series [3].

As to `CC[C@H](C)[C@@H](C(=O)NCCCCC(N)=O)N(C)C(=O)[C@H](CC(C)C)NC(=O)[C@H](CCN)NC(=O)CC[C@@H](NS(=O)(=O)c1ccc(NC(=O)c2ccc(C(N)=O)cc2)cc1)C(=O)O`, the half-inhibitory concentration (IC50) in [1] amounted to 0.22 nM; in series [2] (read-out: IC50) it was 410 nM; at Collagenase 3, 690 nM. The Ratio IC50 in the series filed under Homo sapiens came to 1900; in series [3], 3100. Further, the figures for the remaining at 336 h in [4], in series [5] and in series [6] were 98.3%, 88.8% and 47.6%, respectively.

In the case of `CC[C@H](C)[C@@H](C(=O)NCCCCC(N)=O)N(C)C(=O)[C@H](CC(C)C)NC(=O)[C@@H]1CNCCN1C(=O)CC[C@@H](NS(=O)(=O)c1ccc(NC(=O)c2ccc(Cl)cc2)cc1)C(=O)O`, the IC50 is 0.67 nM in series [1], 78 nM in series [2] (read-out: IC50) and 370 nM on Collagenase 3. Besides, the Ratio IC50 in the series listed under Homo sapiens was 120; in series [3] it was 550.

Consider `CC(C)C[C@H](NC(=O)[C@@H]1CCCN1C(=O)CC[C@@H](NS(=O)(=O)c1ccc(NC(=O)c2ccc(C(N)=O)cc2)cc1)C(=O)O)C(=O)N(C)[C@@H](CCC(=O)O)C(=O)NCCCCC(N)=O`, for which the 50% inhibitory concentration (IC50) in series [1] was found to be 0.31 nM; in [2] (read-out: IC50) it was 52 nM; on Collagenase 3, 50 nM. The Ratio IC50 was 170 in the series filed under Homo sapiens and 160 in series [3].

For `CC[C@H](C)[C@@H](C(=O)NCCCCC(N)=O)N(C)C(=O)[C@H](CC(C)C)NC(=O)[C@@H]1C[C@H](N)CN1C(=O)CC[C@@H](NS(=O)(=O)c1ccc(NC(=O)c2ccc(C(N)=O)cc2)cc1)C(=O)O`, the Ratio IC50 is 550 in the series listed under Homo sapiens and 860 in [3].

For the compound `CC[C@H](C)[C@@H](C(=O)N1CCC[C@H]1CC(N)=O)N(C)C(=O)[C@H](CC(C)C)NC(=O)[C@H](CCN)NC(=O)[C@H](CC(=O)O)NC(=O)[C@H](CCC(=O)O)NC(=O)CCCCNC(=O)c1ccc(Oc2ccc(C(N)=O)cc2)cc1` ({Benzoyl(4-OPh(4-CONH2))-Ava}-ED[Dab]L[NMeI][β3hP]-NH2), in [7], the concentration for half-maximal inhibition (IC50) turned out to be 0.18 nM.

In the case of H-ISYGNDALMP-OH, the Ki in series [1] stood at 21 nM.

In the case of `CC[C@H](C)[C@@H](C(=O)NCCC(N)=O)N(C)C(=O)[C@H](CC(C)C)NC(=O)[C@H](CCN)NC(=O)CC[C@@H](NS(=O)(=O)c1ccc(NC(=O)c2ccc(Cl)cc2)cc1)C(=O)O`, the IC50 was found to be 0.2 nM in series [1], 240 nM in series [2] (read-out: IC50) and 280 nM on Collagenase 3. The values for the Ratio IC50 (in the series listed under Homo sapiens; in series [3]) were 1200 and 1400, respectively.

For `CC[C@H](C)[C@@H](C(=O)NCCCCC(N)=O)N(C)C(=O)[C@H](CC(C)C)NC(=O)[C@H](CCN)NC(=O)CC[C@@H](NS(=O)(=O)c1ccc(NC(=O)c2ccc(Cl)cc2)cc1)C(=O)O`, the results for the half-inhibitory concentration (IC50) (in [1]; in series [2] (read-out: IC50); on Collagenase 3) were 0.11 nM, 180 nM and 310 nM, respectively. Also, the figures for the Ratio IC50 (in the series filed under Homo sapiens; in [3]) were 1600 and 2800, respectively.

Turning to `CC[C@H](C)[C@@H](C(=O)N1CCC[C@H]1CC(N)=O)N(C)C(=O)[C@H](CC(C)C)NC(=O)[C@H](CCN)NC(=O)CC[C@@H](NS(=O)(=O)c1ccc(NC(=O)c2ccc(Cl)cc2)cc1)C(=O)O`, the IC50 in [1] turned out to be 0.43 nM; in series [2] (read-out: IC50), 200 nM; at Collagenase 3 it was 160 nM. Also, the Ratio IC50 in the series listed under Homo sapiens was found to be 470; in series [3] it was 370.

Take `CC[C@H](C)[C@@H](C(=O)NCCCCCC(N)=O)N(C)C(=O)[C@H](CC(C)C)NC(=O)[C@H](CCN)NC(=O)CC[C@@H](NS(=O)(=O)c1ccc(NC(=O)c2ccc(Cl)cc2)cc1)C(=O)O`: the IC50 in series [1] turned out to be 0.1 nM; in [2] (read-out: IC50) it was 260 nM; at Collagenase 3 it was 280 nM. Besides, the Ratio IC50 in the series filed under Homo sapiens was 2600; in [3], 2800.

For `CC[C@H](C)[C@@H](C(=O)N1CCC[C@H]1CC(N)=O)N(C)C(=O)[C@H](CC(C)C)NC(=O)[C@H](CCN)NC(=O)CC[C@@H](NS(=O)(=O)c1ccc(NC(=O)c2ccccc2)cc1)C(=O)O`, the IC50 is 0.74 nM in series [1], 990 nM in series [2] (read-out: IC50) and 630 nM at Collagenase 3. The Ratio IC50 came to 1300 in the series filed under Homo sapiens and 850 in series [3].

As for `CC[C@H](C)[C@@H](C(=O)N1CCC[C@H]1CC(N)=O)N(C)C(=O)[C@H](CC(C)C)NC(=O)[C@H](CCN)NC(=O)CC[C@@H](NS(=O)(=O)c1ccc(-c2ccccc2)cc1)C(=O)O`, the IC50 in [1] stood at 6.2 nM; in series [2] (read-out: IC50), 240 nM; at Collagenase 3 it was 230 nM. Besides, the Ratio IC50 came out at 39 in the series filed under Homo sapiens and 37 in series [3].

In the case of `CC(C)C[C@H](NC(=O)[C@H](CCN)NC(=O)[C@H](CC(=O)O)NC(=O)[C@H](CCC(=O)O)NC(=O)CCCCNC(=O)c1ccc(Oc2ccc(C(N)=O)cc2)cc1)C(=O)N(C)[C@@H](CCC(=O)O)C(=O)N1CCC[C@H]1CC(N)=O` ({Benzoyl(4-OPh(4-CONH2))-Ava}-ED[Dab]L[NMeE][β3hP]-NH2), the values for the remaining at 336 h in series [4], in series [5] and in series [6] were 69.5%, 89% and 87.7%, respectively.
